Measured values: patent US20220280594A1, “APPLICATION OF POLYPEPTIDE OR DERIVATIVE THEREOF” (CHENGDU HUITAI BIOMEDICINE CO., LTD., priority 2019, published 2022)
Ends that are not written are not given here. PEG = not defined here

Legend:
Assay type in all cases: cell-based
[1] = system: human breast cancer cells (MDA-MB-453); assay: scratch assay, migration of MDA-MB-453 cells; settings: MDA-MB-453, 10 μM, 48 hours; control group 32.42 ± 2.04
Outline: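 Confluent MDA-MB-453 monolayers were scratched, then treated with peptide at 10 μM in 2% FBS medium for 48 h, with a PBS control and triplicate wells. Migration rate (%) was taken as (original − current scratch width)/original width ×100 from images.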

[2] = system: human pancreatic cancer cells (PANC-1); assay: transwell migration assay, PANC-1 cells; settings: PANC-1 transwell migration, 10 μM, 24 hours; control group 360 ± 60
Outline: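 Serum-free PANC-1 cells placed in the upper transwell chamber with complete medium below; after 4-5 h, peptide added to the upper chamber at a final 10 μM. Migration ran 24 h at 37 °C; cells on the membrane underside were methanol-fixed, crystal violet-stained and counted by microscopy.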

[3] = system: human thyroid cancer cells (FRO); assay: scratch assay, migration of FRO cells; settings: 10 μM, 48 hours, control group 60.34 ± 8.32
Outline: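 FRO monolayers were scratched, washed, and cultured 48 h in 2% FBS medium with polypeptide derivatives at 10 μM or PBS control, three wells per group. Migration rate (%) = (original − current scratch width)/original width × 100, measured from images.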

[4] = system: human liver adenocarcinoma cells (SK-HEP-1); assay: transwell invasion assay, SK-HEP-1 cells; settings: SK-HEP-1 transwell invasion, 10 μM, 24 hours; control group 767 ± 91
Outline: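 Serum-free SK-HEP-1 cells were seeded in matrigel-coated upper chambers over complete medium. After 4-5 h, peptide was added to the upper chamber at 10 μM final. Following 24 h at 37° C., invaded cells were fixed, crystal violet-stained, imaged and counted.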

[5] = system: human oral epidermoid carcinoma KB cells; assay: scratch assay, migration of KB cells; settings: 10 μM, 48 hours, control group 54.03 ± 4.21
Outline: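 Monolayers of KB cells were scratched, washed with PBS, then cultured 48 hours in 2% FBS medium containing test polypeptide (10 μM) or PBS control, in triplicate wells. From images, migration rate (%) = (original − current scratch width)/original width × 100.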

[6] = system: human pancreatic cancer cells (PANC-1); assay: transwell invasion assay, PANC-1 cells; settings: PANC-1 transwell invasion, 10 μM, 24 hours; control group 727 ± 68
Outline: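 Serum-free PANC-1 cells were seeded in matrigel-coated upper chambers with complete medium below. After 4-5 hours at 37° C., peptide was added at 10 μM final. Following 24 hours, invaded cells on the lower membrane surface were fixed, crystal violet-stained, imaged and counted against untreated controls.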

[7] = system: human pancreatic cancer cells (PANC-1); assay: scratch assay, migration of PANC-1 cells; settings: PANC-1, 10 μM, 48 hours; control group 66.65 ± 3.37
Outline: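 PANC-1 monolayers were scratched, then cultured for 48 h with 10 μM test compound in 2% FBS medium, in three parallel wells per group against a PBS control. Migration rate (%) was calculated as (original minus current scratch width) / original width × 100, from imaged wells.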

[8] = system: human liver adenocarcinoma cells (SK-HEP-1); assay: transwell migration assay, SK-HEP-1 cells; settings: SK-HEP-1 transwell migration, 10 μM, 24 hours; control group 1 782 ± 108, control group 2 768 ± 86
Outline: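 SK-HEP-1 cells in serum-free medium seeded in upper transwell chamber (2-3×10^5 cells/mL) over complete medium; after 4-5 h at 37 °C, 5% CO2, peptide added at 10 μM final in upper chamber. After 24 h, migrated cells fixed in methanol, crystal-violet stained, imaged and counted.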

| Substance | Migration rate (%) (mean ± SD, P) [1] | Number of cells (mean ± SD, P), migrated cells [2] | Migration rate (%) (mean ± SD, P) [3] | Number of cells (mean ± SD, P), invaded cells [4] | Migration rate (%) (mean ± SD, P) [5] | Number of cells (mean ± SD, P), invaded cells [6] | Migration rate (%) (mean ± SD, P) [7] | Number of cells (mean ± SD, P), migrated cells [8] |
| --- | --- | --- | --- | --- | --- | --- | --- | --- |
| N3: SEQ ID NO: 1 with deletion of position 18 and PEG modification at the amino terminal ({PEG}-YRVRFLAKENVTQDAED; reading uncertain) | 13.04 ± 3.5,** % | 224 ± 28,** | 3.51 ± 1.34,*** % | 372 ± 62,*** | 9.95 ± 2.19,*** % | 111 ± 10,**** | 29.67 ± 5.64,*** % | 112 ± 10,**** |
| N19: SEQ ID NO: 1 with deletion of positions 1-5 and 15-18 and addition of two amino acids at the carboxyl terminal (LAKENVTQDRC) | 25.49 ± 2.69,* % | 238 ± 27,* | 25.59 ± 4.08,** % | 348 ± 40,*** | 8.14 ± 2.21,*** % | 213 ± 20,**** | 19.76 ± 7.14,*** % | 82 ± 6,**** |
| N10: SEQ ID NO: 1 with deletion of positions 15-18 and 1-3 and PEG modification at the carboxyl terminal (RFLAKENVTQD-{PEG}; reading uncertain) | 6.9 ± 1.65,*** % | 254 ± 20,* | 14.14 ± 3.64,*** % | 460 ± 43,** | 13.87 ± 3.48,*** % | 159 ± 12,**** | 32.80 ± 5.89,** % | 54 ± 5,**** |
